Measured values reported in patent EP0998477B1, “Alkyl-4-silylheterocyclic phenols and thiophenols as antioxidant agents” (priority 1997, dated 1998).
Like-named read-outs stand apart in the source and are kept apart here.

How the values were obtained:
VCAM-1 = test: Inhibition of cytokine-induced VCAM-1 expression in proliferating HUVEC (cell-surface ELISA); type: cell-based; conditions: Homo sapiens, coincubated with tumor necrosis factor-alpha and compound for 20 hr, average of two runs
Method: Plate proliferating human umbilical vein endothelial cells (HUVEC) or human aortic smooth muscle cells (HASMC) from Clonetics (San Diego, CA) onto 96-well plates in 100 µL medium per well at 20,000 cells per cm^2. Maintain the cultures in growth medium (EGM or SMGM2, Clonetics, San Diego, CA) for two days prior to addition of cytokines or drugs. Add cytokines plus or minus compounds for 20 to 24 hours prior to analysis for adhesion molecule levels. Add tumor necrosis factor (Genzyme, Cambridge, MA) to cultures at 500-1000 units/mL to stimulate adhesion molecule expression. Add interleukin-4 (GIBCO-BRL, Gaithersburg, MD) to cultures at 100-200 pg/mL to stimulate VCAM-1 expression. […] Remove the culture medium, and wash the monolayers twice with Hanks buffered saline solution (HBSS) at room temperature. Add the primary antibody (anti-human VCAM-1 from Upstate Biotechnology, Inc., Lake Placid, NY or anti-human ICAM-1 from Immunotech, Inc., Westbrook, ME) to each well (1 µg/mL in HBSS plus 5% newborn calf serum, GIBCO-BRL, Gaithersburg, MD) and incubate at 37°C for 1 hr. Wash the wells twice with HBSS, then add 100 µL of a 1/1000 dilution of goat anti-mouse IgG conjugated to horse radish peroxidase (BioRad, Hercules, CA) in HBSS plus 5% newborn calf serum to each well and incubated for 1 hr at 37°C. […] Measure absorbance at 450 nm with a plate reader. […]

serum lipids [1] = test: In vivo screening in rats: TBARS assay on serum (CuSO4-initiated oxidation); parameters: species or system Male Sprague-Dawley rats; conditions: thiobarbituric acid reactive substances (nmoles MDA) in serum, percent of control; diet 0.3% for 4 days, N = 5 rats
Excerpt: A typical experiment consists of 4-6 groups of rats (N = 5 per group) with 1 group being a control which receives no MDL compound and the other groups being treated with 0.3% MDL compound. Some of the compounds are either repeated at 0.3% or evaluated again at the lower dose of 0.1 %. House Male Sprague-Dawley rats, 50-100 g, (Harlan Laboratories, Indianapolis, IN) in groups of 5, feeding ad libitum water and Purina Rodent chow (#5002) with or without MDL compound as a dietary admixture for 4 days. Make dietary admixtures (0.3%) by mixing 1.2 grams of an MDL compound with 400 grams of Purina rodent chow (#5002). Mix the MDL compound with approximately 50 grams of food using a mortar and pestle. This is added to the remainder of the food and mixed for 3 hours on a rotary mixer. In the morning of day 5, anesthetize non-fasted rats with carbon dioxide, and collect blood by cardiac puncture. […] Deaths are recorded as mortality. […]
In this assay the oxidation of serum lipids is initiated with CuSO4, resulting in the formation of aldehydes, such as malondialdehyde (MDA). Upon incubation with thiobarbituric acid, the absorbance of the aldehydes can be detected at 530-540 nm. […] Measure absorbances at 540 nm using a Biotek model EL311 microplate reader. The nmoles of MDA produced are calculated from a standard curve of 0 to 10 nmoles of MDA prepared from malonaldehyde bis(dimethylacetal). […]

ICAM-1 = test: Inhibition of cytokine-induced ICAM-1 expression in proliferating HUVEC (cell-surface ELISA); type: cell-based, human
Method: Plate proliferating human umbilical vein endothelial cells (HUVEC) or human aortic smooth muscle cells (HASMC) from Clonetics (San Diego, CA) onto 96-well plates in 100 µL medium per well at 20,000 cells per cm^2. Maintain the cultures in growth medium (EGM or SMGM2, Clonetics, San Diego, CA) for two days prior to addition of cytokines or drugs. Add cytokines plus or minus compounds for 20 to 24 hours prior to analysis for adhesion molecule levels. Add tumor necrosis factor (Genzyme, Cambridge, MA) to cultures at 500-1000 units/mL to stimulate adhesion molecule expression. Add interleukin-4 (GIBCO-BRL, Gaithersburg, MD) to cultures at 100-200 pg/mL to stimulate VCAM-1 expression. […] Remove the culture medium, and wash the monolayers twice with Hanks buffered saline solution (HBSS) at room temperature. Add the primary antibody (anti-human VCAM-1 from Upstate Biotechnology, Inc., Lake Placid, NY or anti-human ICAM-1 from Immunotech, Inc., Westbrook, ME) to each well (1 µg/mL in HBSS plus 5% newborn calf serum, GIBCO-BRL, Gaithersburg, MD) and incubate at 37°C for 1 hr. Wash the wells twice with HBSS, then add 100 µL of a 1/1000 dilution of goat anti-mouse IgG conjugated to horse radish peroxidase (BioRad, Hercules, CA) in HBSS plus 5% newborn calf serum to each well and incubated for 1 hr at 37°C. Wash the wells three times with HBSS, then add 100 µL of TMB substrate (BioRad, Hercules, CA) to each well. Stop the reaction after blue color develops by addition of 50 µL of 1 N H2SO4. Measure absorbance at 450 nm with a plate reader.
The IC50 value is defined as the drug concentration that inhibits the cytokine-induced adhesion molecule expression by 50%. Maximal values for adhesion molecule expression in cytokine-induced cultures was subtracted from the basal level of adhesion molecule expression (minus cytokines) in the cultures to detoermine the level of induction. Each drug concentration was tested in quadruplicate wells. […]

[2] = In vivo screening in rats: animal parameters (food, body weight, liver weight, mortality); parameters: species or system Male Sprague-Dawley rats; conditions: diet 0.3% for 4 days, N = 5 rats; for mortality: deaths per group; for food: grams eaten per day per rat; for food / lw/bw / body wt.: percent of control; for lw/bw: liver weight/body weight; for body wt.: weight in grams
Excerpt: (§1) A typical experiment consists of 4-6 groups of rats (N = 5 per group) with 1 group being a control which receives no MDL compound and the other groups being treated with 0.3% MDL compound. Some of the compounds are either repeated at 0.3% or evaluated again at the lower dose of 0.1 %. House Male Sprague-Dawley rats, 50-100 g, (Harlan Laboratories, Indianapolis, IN) in groups of 5, feeding ad libitum water and Purina Rodent chow (#5002) with or without MDL compound as a dietary admixture for 4 days. Make dietary admixtures (0.3%) by mixing 1.2 grams of an MDL compound with 400 grams of Purina rodent chow (#5002). Mix the MDL compound with approximately 50 grams of food using a mortar and pestle. This is added to the remainder of the food and mixed for 3 hours on a rotary mixer. In the morning of day 5, anesthetize non-fasted rats with carbon dioxide, and collect blood by cardiac puncture. Sacrifice rats by cervical dislocation. Record body weights and liver weights in grams. Record food consumption as grams • day^-1 • rat^-1. Deaths are recorded as mortality. Use aliquots of fresh serum for clinical chemistries, thiobarbituric acid reactive substances (TBARS) and conjugated diene measurements. Freeze aliquots of serum (∼ 0.5mL) and whole livers at -20°C for compound and metabolite concentration determination at a later time.

serum lipids [3] = test: In vivo screening in rats: conjugated diene lag phase of pooled serum; parameters: species or system Male Sprague-Dawley rats; conditions: mean of 2 determinations of pooled serum (N = 5), not normalized, Control = 61 min., diet 0.3% for 4 days
Excerpt: A typical experiment consists of 4-6 groups of rats (N = 5 per group) with 1 group being a control which receives no MDL compound and the other groups being treated with 0.3% MDL compound. Some of the compounds are either repeated at 0.3% or evaluated again at the lower dose of 0.1 %. House Male Sprague-Dawley rats, 50-100 g, (Harlan Laboratories, Indianapolis, IN) in groups of 5, feeding ad libitum water and Purina Rodent chow (#5002) with or without MDL compound as a dietary admixture for 4 days. Make dietary admixtures (0.3%) by mixing 1.2 grams of an MDL compound with 400 grams of Purina rodent chow (#5002). Mix the MDL compound with approximately 50 grams of food using a mortar and pestle. This is added to the remainder of the food and mixed for 3 hours on a rotary mixer. In the morning of day 5, anesthetize non-fasted rats with carbon dioxide, and collect blood by cardiac puncture. Sacrifice rats by cervical dislocation. Record body weights and liver weights in grams. Record food consumption as grams • day^-1 • rat^-1. Deaths are recorded as mortality. […]
Conjugated diene lag phase is another indicator of the oxidation of lipids. […] Measure the absorbances of all cuvettes and set the instrument baseline to zero using the lowest absorbing sample. […] Record the absorbance of each cuvette at 2 min intervals for a period of 840 min. […]

[4] = In vivo screening in rats: serum clinical chemistries; parameters: species or system Male Sprague-Dawley rats; conditions: percent of control, diet 0.3% for 4 days, N = 5 rats; for ALT: alanine aminotransferase in serum; for ALP: alkaline phosphatase in serum; for AST: aspartate aminotransferase in serum; for GLUC: glucose in serum; for CHOL: total cholesterol in serum; for TRIG: triglycerides in serum
Excerpt: as §1
Allow blood to clot at room temperature for 30 minutes. Obtain serum after centrifugation for 10 min at 4°C at 3000 rpm in a Beckman J-6M/E centrifuge with a JS-4.2 rotor. Analyze fresh serum by a COBAS MIRA S autoanalyzer (Roche Diagnostics) using Roche diagnostic reagents for the following clinical chemistry measurements: alkaline phosphatase (ALP, kit # 44553), alanine transaminase (ALT, kit # 42375), aspartate aminotransferase (AST, kit # 42381), total cholesterol (CHOL, kit # 44334), triglyceride (TG, kit # 44120), and glucose (GLU, kit # 44558). Calculate ALP, ALT, and AST as units/L. Calculate cholesterol, triglycerides, and glucose as mg/dL.

[5] = male, Sprague-Dawley, rat, in vivo
Excerpt: as §1
Determine serum and liver concentrations of parent compound and the metabolites, bisphenol and diphenoquinone, by reverse phase HPLC using a Waters 990 Powerline system. Homegenize livers (1 gram samples) with 5.0mL PBS, pH 7.4, using a Polytron tissue homogenizer at setting 5 for 20-30 seconds. Extract serum or liver homogenates as follows: add 100µL of either serum or homogenate to 2.0mL diethyl ether: ethanol (3:1) while vortexing the tube. Cap the sample tubes and centrifuge for 10 min at 5°C at 3500 rpm in a Beckman GPKR centrifuge with a GH 3.7 rotor. Transfer the supematants to clean tubes and dry under N2. Reconstitute samples with 200µL of acetonitrile : hexane: 0.1 M ammonium acetate (90: 6.5 : 3.5, by vol.). Then, inject 100µL onto a Waters Deltapak C18-300 Å column, and elute with an 83% acetonitrile : 17% water mobile phase at a flow rate of 1.5mL/min. Record absorbances at the wavelengths of 240, 254, and 420nm. Calculate compound concentrations from known quantities of authentic parent compounds after correction for recovery. […]. Calculate concentrations as µg/mL of serum and µg/g of liver.

Row | Structure (SMILES) | IC50 (VCAM-1) [µM] | TBARS (serum lipids [1]) [%] | IC50 (ICAM-1; Homo sapiens, coincubated with tumor necrosis factor-alpha and compound for 20 hr, average of two runs, except MDL 107,695 where both values are shown, read-out: ICAM-1 IC50) [µM] | mortality [2] [%] | food [2] [%] | lw/bw [2] [%] | body wt. [2] [%] | CONJ. DIENE (serum lipids [3]) [min] | ALT [4] [%] | ALP [4] [%] | AST [4] [%] | GLUC [4] [%] | CHOL [4] [%] | TRIG [4] [%] | Liver Parent [5] [µg/g liver] | Serum Parent [5] | IC50 (ICAM-1; Homo sapiens, 20 h, read-out: ICAM-1 IC50, HUVEC, coincubated with tumor necrosis factor-alpha and compound for 20 hr, average of two runs, except MDL 107,695 where both values are shown) [µM] | IC50 (ICAM-1; read-out: ICAM-1 IC50, coincubated with tumor necrosis factor-alpha and compound for 20 hr, average of two runs, except MDL 107,695 where both values are shown) [µM]
1 | CC(C)(C)c1cc(OC[Si](C)(C)c2ccco2)cc(C(C)(C)C)c1O [MDL 106,939, Phenol, 2,6-bis(1,1-dimethylethyl)-4-[(2-furanyldimethylsilyl)methoxy]-] | 13 | 64 | 33 | 0 | 88 | 130 | 92 | 391 | 92 | 123 | 106 | 83 | 120 | 108 | 97.7 | 3.3 µg/mL of serum | – | –
2 | CC(C)(C)c1cc(OC[Si](C)(C)c2cccs2)cc(C(C)(C)C)c1O [MDL 107,965, Phenol, 2,6-bis(1,1-dimethylethyl)-4-[(dimethyl-2-thienylsilyl)methoxy]-] | – | 57 | – | 0 | 84 | 118 | 84 | 273 | 96 | 137 | 89 | 86 | 121 | 90 | 82 | 12.6 µg/mL of serum | 72 | > 100
